Test results published in patent publication US11065231B2, “Compounds and methods for the targeted degradation of interleukin-1 receptor- associated kinase 4 polypeptides” (Arvinas Operations, Inc., priority 2017, dated 2021).

Key:
[1] = target: T1, IRAK4 (Homo sapiens (Human), UniProt Q9NWZ3); experiment: Biochemical Z'-Lyte FRET assay for IRAK4 kinase inhibition; conditions: 2 nM enzyme, 1 mM ATP, 2 μM substrate
Method in brief: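 Z′-Lyte FRET phosphorylation of Ser/Thr 7 peptide (2 µM) by 2 nM recombinant IRAK4 at 1 mM ATP in HEPES pH 7.5 with MgCl2/MnCl2, after 10 min enzyme–compound preincubation; 1 h at room temperature, then 1 h development, 460/530 nm emission. Duplicate 12-point, 3-fold curves from 30 µM; IC50 from percent inhibition against ±100% controls.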

[2] = target: T1, IRAK4; experiment: Western blot assay for assessing degradation of IRAK4 in MCF7 cells; format: cell-based
Method in brief: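 MCF7 cells were treated 24 h with serially diluted compound (0.1% DMSO final), then lysed in RIPA. IRAK4 and IRAK1 levels were measured by western blot with β-actin probed alongside. Percent degradation compared compound-treated with DMSO-treated lysates.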

[3] = target: T1, IRAK4; experiment: ELISA assay for IRAK4 degradation in MCF7 cells; format: cell-based; conditions: Table 1, 24 hours
Method: Enzyme-Linked Immunosorbent Assay (ELISA) Assay for IRAK4 Degradation.
MCF7 cells, purchased from ATCC (Manassas, Va.), were used at a passage range of 2-19. Cells were prepared and treated with compounds for 24 hours, exactly as described above for the Western blots. The ELISA assay was performed using the kit and instructions described by Abcam (cat. #: ab213472, Abcam Biotechnology, Cambridge, Mass.). Table 1 below provides and compares the ELISA IRAK4 degradation data to the western blot IRAK 4 degradation data for Examples 2, 3, 4, and 5. Furthermore, FIG. 5 is a graph illustrating the ELISA IRAK4 degradation data.

[4] = target: T1, IRAK4; experiment: Western blots of IRAK4 protein degradation; format: cell-based; conditions: from western blots
[5] = Table 5, IRAK4 degradation, 24 hour incubation, read-out: IRAK4 DC50
[6] = Table 5, IRAK4 degradation, 24 hour incubation, read-out: IRAK4 Dmax (%)

T1 sequence (Q9NWZ3 whole entry): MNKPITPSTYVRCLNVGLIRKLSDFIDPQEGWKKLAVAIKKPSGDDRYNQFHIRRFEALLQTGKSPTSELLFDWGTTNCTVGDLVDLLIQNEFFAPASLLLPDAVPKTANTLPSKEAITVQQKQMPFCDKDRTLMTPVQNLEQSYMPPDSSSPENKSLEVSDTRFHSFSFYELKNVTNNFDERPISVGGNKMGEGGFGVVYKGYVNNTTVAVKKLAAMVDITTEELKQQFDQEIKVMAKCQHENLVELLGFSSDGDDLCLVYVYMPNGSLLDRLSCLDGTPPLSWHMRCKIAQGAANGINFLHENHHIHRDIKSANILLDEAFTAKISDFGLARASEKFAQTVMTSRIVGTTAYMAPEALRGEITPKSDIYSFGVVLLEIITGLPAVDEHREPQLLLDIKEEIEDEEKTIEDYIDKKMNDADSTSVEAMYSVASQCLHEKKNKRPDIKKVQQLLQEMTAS

SMILES: O=C1CCC(N2C(=O)c3ccc(OCCOCCOCCOCCN4CCN(Cc5ccc6c(c5)nc(NC(=O)c5cccc(C(F)(F)F)c5)n6[C@H]5CC[C@@H](CO)CC5)CC4)cc3C2=O)C(=O)N1 (some centres unmarked) [compound 4, N-(5-((4-(2-(2-(2-(2-((2-(2,6-dioxopiperidin-3-yl)-1,3-dioxoisoindolin-5-yl)oxy)ethoxy)ethoxy)ethoxy)ethyl)piperazin-1-yl)methyl)-1-((1s,4s)-4-(hydroxymethyl)cyclohexyl)-1H-benzo[d]imidazol-2-yl)-3-(trifluoromethyl)benzamide]
- IC50 [1]: < 30 nM
- IRAK4 by western % degraded ([2]; Table 1, 24 hours): 87%
- DC50 ([2]; Table 1, 24 hours, read-out: IRAK4 by western DC50): 25 nM
- DC50 [2, 5]: < 30 nM
- Dmax [2, 6]: > 70%
- IRAK4 by ELISA % degraded [3]: 89%

SMILES: COc1cc2nn(C3CCN(CCOCCOc4ccc5c(c4)CN(C4CCC(=O)NC4=O)C5=O)CC3)cc2cc1NC(=O)c1cccc(C(F)(F)F)n1 (centres unmarked) [compound 60, N-(2-(1-(2-(2-((2-(2,6-dioxopiperidin-3-yl)-1-oxoisoindolin-5-yl)oxy)ethoxy)ethyl)piperidin-4-yl)-6-methoxy-2H-indazol-5-yl)-6-(trifluoromethyl)picolinamide]
- DC50 [4]: 3.5 nM
- Dmax ([4]; read-out: Dmax): 73%
- IC50 [1]: < 30 nM
- DC50 [2, 5]: < 30 nM
- Dmax [2, 6]: 50 to 70%
- DC50 ([2]; western blot, 24 hour incubation, read-out: DC50 (IRAK4 degradation)): 3.5 nM
- Dmax ([2]; western blot, 24 hour incubation, read-out: Dmax (IRAK4 degradation)): 73%

SMILES: CN(CCOCCOCCOCCOc1ccc2c(c1)C(=O)N(C1CCC(=O)NC1=O)C2=O)c1cccc(-n2c(NC(=O)c3cccc(C(F)(F)F)c3)nc3cc(F)ccc32)c1 (centres unmarked) [compound 52, N-(1-(3-((2-(2-(2-(2-((2-(2,6-dioxopiperidin-3-yl)-1,3-dioxoisoindolin-5-yl)oxy)ethoxy)ethoxy)ethoxy)ethyl)(methyl)amino)phenyl)-5-fluoro-1H-benzo[d]imidazol-2-yl)-3-(trifluoromethyl)benzamide]
- IC50 [1]: ≥ 1000 nM
- DC50 [2, 5]: ≥ 1000 nM

SMILES: Cc1ccc(-n2nc(N3CCN(CCOCCOCCOCCOCC(=O)N[C@H](C(=O)N4C[C@H](O)C[C@H]4C(=O)NCc4ccc(-c5scnc5C)cc4)C(C)(C)C)CC3)cc2NC(=O)c2cnn3cccnc23)nc1 [compound 28, N-(3-(4-((S)-16-((2S,4R)-4-hydroxy-2-((4-(4-methylthiazol-5-yl)benzyl)carbamoyl)pyrrolidine-1-carbonyl)-17,17-dimethyl-14-oxo-3,6,9,12-tetraoxa-15-azapentadecyl)piperazin-1-yl)-1-(5-methylpyridin-2-yl)-1H-pyrazol-5-yl)pyrazolo[1,5-a]pyrimidine-3-carboxamide]
- IC50 [1]: 300 to 1000 nM
- DC50 [2, 5]: ≥ 1000 nM

SMILES: N#Cc1ccc2ncnc(N[C@H]3CC[C@H](N4CCN(CCOCCOCCOCCOc5ccc6c(c5)C(=O)N(C5CCC(=O)NC5=O)C6=O)CC4)CC3)c2c1 (some centres unmarked) [compound 32]
- IC50 [1]: ≥ 1000 nM
- DC50 [2, 5]: ≥ 1000 nM

SMILES: COc1cccc(-n2c(NC(=O)c3cccc(C(F)(F)F)c3)nc3cc(CN4CCN(CCOCCOCCOc5ccc6c(c5)C(=O)N(C5CCC(=O)NC5=O)C6=O)CC4)ccc32)c1 (centres unmarked) [compound 54, N-(5-((4-(2-(2-(2-((2-(2,6-dioxopiperidin-3-yl)-1,3-dioxoisoindolin-5-yl)oxy)ethoxy)ethoxy)ethyl)piperazin-1-yl)methyl)-1-(3-methoxyphenyl)-1H-benzo[d]imidazol-2-yl)-3-(trifluoromethyl)benzamide]
- IC50 [1]: ≥ 1000 nM
- DC50 [2, 5]: ≥ 1000 nM

SMILES: O=C1CCC(N2C(=O)c3ccc(OCCOCCOC[C@H]4CC[C@@H](n5c(NC(=O)c6cccc(C(F)(F)F)c6)nc6cc(CN7CCCCC7)ccc65)CC4)cc3C2=O)C(=O)N1 (some centres unmarked) [compound 44, N-(1-((1s,4s)-4-((2-(2-((2-(2,6-dioxopiperidin-3-yl)-1,3-dioxoisoindolin-5-yl)oxy)ethoxy)ethoxy)methyl)cyclohexyl)-5-(piperidin-1-ylmethyl)-1H-benzo[d]imidazol-2-yl)-3-(trifluoromethyl)benzamide]
- IC50 [1]: ≥ 1000 nM
- DC50 [2, 5]: ≥ 1000 nM

SMILES: Cc1ncsc1-c1ccc(CNC(=O)[C@@H]2C[C@@H](O)CN2C(=O)[C@@H](NC(=O)COCCOCCOCCOCCN2CCN(Cc3ccc4c(c3)nc(NC(=O)c3cccc(C(F)(F)F)c3)n4C3CCC(CO)CC3)CC2)C(C)(C)C)cc1 (mixture of isomers) [compound 14, (2S,4R)-1-((S)-2-(tert-butyl)-17-(4-((1-((1SR,4SR)-4-(hydroxymethyl)cyclohexyl)-2-(3-(trifluoromethyl)benzamido)-1H-benzo[d]imidazol-5-yl)methyl)piperazin-1-yl)-4-oxo-6,9,12-tetraoxa-3-azatetradecanoyl)-4-hydroxy-N-(4-(4-methylthiazol-5-yl)benzyl)pyrrolidine-2-carboxamide]
- IC50 [1]: < 30 nM
- DC50 [2, 5]: ≥ 1000 nM

SMILES: O=C1CCC(N2C(=O)c3ccc(OCCOCCOCCOCCOC[C@H]4CC[C@@H](n5c(NC(=O)c6cccc(C(F)(F)F)c6)nc6cc(F)ccc65)CC4)cc3C2=O)C(=O)N1 (some centres unmarked) [compound 48, N-(1-((1s,4s)-4-(13-((2-(2,6-dioxopiperidin-3-yl)-1,3-dioxoisoindolin-5-yl)oxy)-2,5,8,11-tetraoxatridecyl)cyclohexyl)-5-fluoro-1H-benzo[d]imidazol-2-yl)-3-(trifluoromethyl)benzamide]
- IC50 [1]: ≥ 1000 nM
- DC50 [2, 5]: ≥ 1000 nM

SMILES: O=C1CCC(N2C(=O)c3ccc(OCCOCCOC[C@H]4CC[C@@H](n5c(NC(=O)c6cccc(C(F)(F)F)c6)nc6cc(F)ccc65)CC4)cc3C2=O)C(=O)N1 (some centres unmarked) [compound 46, N-(1-((1s,4s)-4-((2-(2-((2-(2,6-dioxopiperidin-3-yl)-1,3-dioxoisoindolin-5-yl)oxy)ethoxy)ethoxy)methyl)cyclohexyl)-5-fluoro-1H-benzo[d]imidazol-2-yl)-3-(trifluoromethyl)benzamide]
- IC50 [1]: ≥ 1000 nM
- DC50 [2, 5]: ≥ 1000 nM

SMILES: O=C1CCC(N2C(=O)c3ccc(OCCOCCOCCN4CCN(Cc5ccc6c(c5)nc(NC(=O)c5cccc(C(F)(F)F)c5)n6-c5ccccc5)CC4)cc3C2=O)C(=O)N1 (centres unmarked) [compound 53, N-(5-((4-(2-(2-(2-((2-(2,6-dioxopiperidin-3-yl)-1,3-dioxoisoindolin-5-yl)oxy)ethoxy)ethoxy)ethyl)piperazin-1-yl)methyl)-1-phenyl-1H-benzo[d]imidazol-2-yl)-3-(trifluoromethyl)benzamide]
- IC50 [1]: ≥ 1000 nM
- DC50 [2, 5]: ≥ 1000 nM

SMILES: O=C1CCC(N2C(=O)c3ccc(OCCN4CCN(Cc5ccc6c(c5)nc(NC(=O)c5cccc(C(F)(F)F)c5)n6-c5ccccc5)CC4)cc3C2=O)C(=O)N1 (centres unmarked) [compound 55, N-(5-((4-(2-((2-(2,6-dioxopiperidin-3-yl)-1,3-dioxoisoindolin-5-yl)oxy)ethyl)piperazin-1-yl)methyl)-1-phenyl-1H-benzo[d]imidazol-2-yl)-3-(trifluoromethyl)benzamide]
- IC50 [1]: ≥ 1000 nM
- DC50 [2, 5]: ≥ 1000 nM

SMILES: COc1cccc(-n2c(NC(=O)c3cccc(C(F)(F)F)c3)nc3cc(CN4CCN(CCOc5ccc6c(c5)C(=O)N(C5CCC(=O)NC5=O)C6=O)CC4)ccc32)c1 (centres unmarked) [compound 56, N-(5-((4-(2-((2-(2,6-dioxopiperidin-3-yl)-1,3-dioxoisoindolin-5-yl)oxy)ethyl)piperazin-1-yl)methyl)-1-(3-methoxyphenyl)-1H-benzo[d]imidazol-2-yl)-3-(trifluoromethyl)benzamide]
- IC50 [1]: ≥ 1000 nM
- DC50 [2, 5]: ≥ 1000 nM

SMILES: CC1CCC(n2c(NC(=O)c3cccc(C(F)(F)F)c3)nc3cc(CN4CCN(CCOCCOc5ccc6c(c5)C(=O)N(C5CCC(=O)NC5=O)C6=O)CC4)ccc32)CC1 (centres unmarked) [compound 7, N-(5-((4-(2-(2-((2-(2,6-dioxopiperidin-3-yl)-1,3-dioxoisoindolin-5-yl)oxy)ethoxy)ethyl)piperazin-1-yl)methyl)-1-((1s,4s)-4-methylcyclohexyl)-1H-benzo[d]imidazol-2-yl)-3-(trifluoromethyl)benzamide]
- IC50 [1]: 100 to 300 nM
- DC50 [2, 5]: ≥ 1000 nM
- Dmax [2, 6]: 30 to 50%

SMILES: Cc1ncsc1-c1ccc(CNC(=O)[C@@H]2C[C@@H](O)CN2C(=O)[C@@H](NC(=O)COCCN2CCN(Cc3ccc4c(c3)nc(NC(=O)c3cccc(C(F)(F)F)c3)n4C3CCC(CO)CC3)CC2)C(C)(C)C)cc1 (mixture of isomers) [compound 11, (2S,4R)-4-hydroxy-1-((S)-2-(2-(2-(4-((1-((1SR,4SR)-4-(hydroxymethyl)cyclohexyl)-2-(3-(trifluoromethyl)benzamido)-1H-benzo[d]imidazol-5-yl)methyl)piperazin-1-yl)ethoxy)acetamido)-3,3-dimethylbutanoyl)-N-(4-(4-methylthiazol-5-yl)benzyl)pyrrolidine-2-carboxamide]
- IC50 [1]: 300 to 1000 nM
- DC50 [2, 5]: ≥ 1000 nM
- Dmax [2, 6]: > 70%

SMILES: COc1cc2nn(C3CCN(CCOCCOCCOc4ccc5c(c4)C(=O)N(C4CCC(=O)NC4=O)C5=O)CC3)cc2cc1NC(=O)c1cccc(C(F)(F)F)n1 (centres unmarked) [compound 59, N-(2-(1-(2-(2-(2-((2-(2,6-dioxopiperidin-3-yl)-1,3-dioxoisoindolin-5-yl)oxy)ethoxy)ethoxy)ethyl)piperidin-4-yl)-6-methoxy-2H-indazol-5-yl)-6-(trifluoromethyl)picolinamide]
- IC50 [1]: < 30 nM
- DC50 [2, 5]: 300 to 1000 nM
- Dmax [2, 6]: 50 to 70%
